Paper PMC6270994, “The Hydractinia echinata Test-System. III: Structure-Toxicity Relationship Study of Some Azo-, Azo-Anilide, and Diazonium Salt Derivatives” (Molecules, 2014)
Where two headings read alike, the source gives them in different places.

System: Hydractinia echinata
Assay: Hydractinia echinata test system (HeTS): reduction of Cs+-induced metamorphosis of larvae
Type: in vivo
Settings: for EC50: Hydractinia echinata; for F(1), F(2),... individual log(1/MRC50) toxicity value: product of enzymatic reduction/hydrolysis of the dye
Description: The average (C) concentrations of these values were calculated too. The MRC50 value calculations (Chicu et al.) result from the graphical representation of the metamorphosis variation, M (%), (Y axis) function of the xenobiotic’s concentration (mol/L) (X axis), where the metamorphosis decreases with the rise of the xenobiotic’s concentration. Thus, the MRC50 value represents the xenobiotic’s concentration (mol/L) necessary for a 50% decrease of metamorphosis, with respect to control.
For each concentration of substance experiments were performed in triplicate and were repeated at least twice.
Colonies of H. echinata (Biologische Anstalt, Helgoland, Germany) were used to obtain eggs and larvae. The culture medium was artificial seawater (980 mosmol, pH 8.2, 18 °C). In laboratory an artificial metamorphosis can be synchronically started by the introduction of Cs^+ ions or by using seawater without Mg^2+ ions; it then lasts only 24 h. Under the action of external stimulus of Cs^+ ions or Cs^+ ions together with the tested compounds, one part of larvae further lives as such and another one is metamorphosized to the polyp form. The evaluation of the influence of the tested substance is very clear this way, the proposed method being based on this aspect.
H. echinata larvae were exposed to seawater containing Cs^+ and simultaneously one of the test substances for 3 h. The percentage of animals that underwent metamorphosis (development into polyps) was determined after 24 h. […] We chose a concentration of inducers which caused about […] to three quarters of the larvae to metamorphose in order to have conditions which are highly sensitive against an inhibitory influence. […] This concentration was termed MRC50 (for Metamorphosis Reduction Concentration) and is similar to the effective EC50 concentration that gives half maximal effective response.

[1] = MRC50 in mol/L = concentration for 50% decrease of metamorphosis vs control, larvae exposed 3 h with Cs+, read after 24 h
[2] = MRC50 in mol/L = concentration for 50% decrease of metamorphosis vs control, larvae exposed 3 h with Cs+, read after 24 h, read-out: M: experimental Mlog(1/MRC50) (converted)

Molecule	M: experimental Mlog(1/MRC50) [1]	EC50 [2] [µM]	also measured
CC1(C)Nc2cccc3c(N=Nc4ccc(N=Nc5ccccc5)c5ccccc45)ccc(c23)N1 [Compound 80, Sudan Black B (Solvent Black 3)]	4.20	–	–
COc1cc(-c2ccc(-n3nc(-c4ccccc4)n[n+]3-c3ccccc3)c(OC)c2)ccc1-n1nc(-c2ccccc2)n[n+]1-c1ccccc1 [Compound 95, Tetrazolium Blue Chloride]	–	91.2	–
Nc1ccc(/C=C/c2ccc(N)cc2S(=O)(=O)O)c(S(=O)(=O)O)c1 [ADASDS, diaminostilbene disulfonic acid]	–	–	F(1), F(2),... individual log(1/MRC50) toxicity value: 3.43
O=C(O)c1ccc(/N=N/c2ccc(O)cc2O)cc1 [Compound 8, 4-[(E)-2-(2,4-dihydroxy-phenyl)diazen-1-yl]benzoic acid]	–	490	EC50 (parent dye, Table 2, read-out: F(1+2+...)e experimental toxicity log(1/MRC50) (converted)): 490 µM
O=S(=O)([O-])c1cc(N=Nc2ccc(O)cc2)ccc1/C=C/c1ccc(N=Nc2ccc(O)cc2)cc1S(=O)(=O)[O-].[Na+].[Na+] [Compound 96, Brilliant Yellow]	3.84	–	F(1+2+...)e experimental toxicity log(1/MRC50) (parent dye, Table 2): 3.84
O=S(=O)([O-])c1ccc(N=Nc2ccc(N=Nc3c(O)ccc4ccccc34)c(S(=O)(=O)[O-])c2)cc1.[Na+].[Na+] [Compound 68, Acid Red 66 (Biebrischer Scharlach)]	3.95	–	–
Nc1ccc(S(=O)(=O)O)cc1 [APABS, p-aminobenzenesulfonic acid]	–	–	F(1), F(2),... individual log(1/MRC50) toxicity value: 2.81
CC(=O)Nc1cc(S(=O)(=O)[O-])cc2cc(S(=O)(=O)[O-])c(N=Nc3ccccc3)c(O)c12.[Na+].[Na+] [Compound 42, Acid Red 1 (Azophloxin)]	3.66	–	–
Fast Red B Salt [Compound 137]	5.25	–	–
Oc1ccc2ccccc2c1N=Nc1ccc(N=Nc2ccccc2)cc1 [Compound 65, Solvent Red 23 (Sudan III, Sudan V)]	3.64	–	–
O=S(=O)([O-])c1ccc(N=Nc2c(O)ccc3ccccc23)cc1.[Na+] [Compound 28, Acid Orange 7]	3.17	–	–
O=S(=O)([O-])c1ccc(N=Nc2ccc(N=Nc3c(O)c(S(=O)(=O)[O-])cc4cc(S(=O)(=O)[O-])ccc34)c(S(=O)(=O)[O-])c2)cc1.[Na+].[Na+].[Na+].[Na+] [Compound 69, Ponceau S]	3.97	–	–
Cc1[nH]n(-c2ccc(S(=O)(=O)O)cc2)c(=O)c1N=Nc1ccc(NC(=O)c2ccc(N=Nc3c(C)[nH]n(-c4ccc(S(=O)(=O)O)cc4)c3=O)cc2)cc1 [Compound 112, 4-(3-Methyl-4-{2-[4-(4-{2-[5-methyl-3-oxo-2-(4-sulfophenyl)-2,3-dihydro-1H-pyrazol-4-yl]diazen-1-yl}-benzamido)phenyl]-diazen-1-yl}-5-oxo-2,5-dihydro-1H-pyrazol-1-yl)benzene-1-sulfonic acid]	–	95.5	–
Nc1ccc2cc(S(=O)(=O)O)c(N=Nc3ccc(NC(=O)c4ccc(N=Nc5ccc(O)c(C(=O)Nc6ccccc6)c5)cc4)cc3)c(O)c2c1 [Compound 121, 6-Amino-4-hydroxy-3-{2-[4-(4-{2-[4-hydroxy-3-(phenyl-carbamoyl)phenyl]diazen-1-yl}benzamido)-phenyl]diazen-1-yl}naphthalene-2-sulfonic acid]	–	31.6	–
O=S(=O)(O)c1ccc(O)c(/N=N/c2ccc(O)cc2O)c1 [Compound 21, 3-[(E)-2-(2,4-dihydroxyphenyl)-diazen-1-yl]-4-hydroxybenzene-1-sulfonic acid]	–	53.7	–
Nc1c(N=Nc2ccc([N+](=O)[O-])cc2)c(S(=O)(=O)O)cc2cc(S(=O)(=O)O)c(N=Nc3ccc(NC(=O)c4ccc(N=Nc5ccc(O)c(C(=O)O)c5)cc4)cc3)c(O)c12 [Compound 113, 5-[2-(4-{[4-(2-{8-Amino-1-hydroxy-7-[2-(4-nitrophenyl)diazen-1-yl]-3,6-disulfonaphthalen-2-yl}diazen-1-yl)-phenyl]carbamoyl}-phenyl)diazen-1-yl]-2-hydroxybenzoic acid]	–	112	–
